{"source": "ChEMBL document CHEMBL4382213", "about": "“Identification and characterization of agnuside, a natural proangiogenic small molecule” (Eur J Med Chem, 2018)", "key": {"[1]": {"test_system": "HUVEC", "test": "Effect on cell morphology in HUVEC at 1 to 2500 ng/ml after 24 to 96 hrs by DAPI staining-based spectrofluorometric analysis", "format": "functional", "settings": "Homo sapiens"}, "[2]": {"test_system": "HUVEC", "test": "Pro-angiogenic activity in HUVEC assessed as increase in meshes formation after 22 hrs by phase-contrast image analysis", "format": "functional, cell-based", "settings": "Homo sapiens"}, "[3]": {"test_system": "HUVEC", "test": "Pro-angiogenic activity in HUVEC assessed as increase in tubular network formation at 0.1 ng/ml after 22 hrs by phase-contrast image analysis", "format": "functional, cell-based", "settings": "Homo sapiens"}, "[4]": {"test_system": "HUVEC", "test": "Pro-angiogenic activity in HUVEC assessed as increase in meshes formation at 0.1 to 10 ng/ml after 22 hrs by phase-contrast image analysis", "format": "functional, cell-based", "settings": "Homo sapiens"}, "[5]": {"test_system": "HUVEC", "test": "Pro-angiogenic activity in HUVEC assessed as increase in cell proliferation at 2500 ng/ml after 24 to 72 hrs by DAPI staining-based spectrofluorometric analysis relative to control", "format": "functional, Homo sapiens"}, "[6]": {"test_system": "HUVEC", "test": "Pro-angiogenic activity in HUVEC assessed as increase in cell proliferation after 96 hrs by DAPI staining-based spectrofluorometric analysis", "format": "functional", "settings": "Homo sapiens"}, "[7]": {"test_system": "HUVEC", "test": "Pro-angiogenic activity in HUVEC assessed as increase in tubular network formation at 0.1 ng/ml preincubated for 30 mins followed by ZM 323881 HCl addition and measured after 22 hrs by phase-contrast image analysis", "format": "functional, cell-based", "settings": "Homo sapiens"}, "[8]": {"test_system": "HUVEC", "test": "[…] activity in HUVEC assessed as wound closure at 100 ng/ml after 24 hrs by phase-contrast microscopic analysis", "format": "functional, cell-based", "settings": "Homo sapiens"}, "[9]": {"test_system": "HUVEC", "test": "Pro-angiogenic activity in HUVEC assessed as increase in cell proliferation at 2500 ng/ml after 96 hrs by DAPI staining-based spectrofluorometric analysis relative to control", "format": "functional, Homo sapiens"}}, "note": "Activity calls are given as the source filed them. No cut-off for these calls is given here.", "data": [{"compound": "O=C(OCC1=C[C@@H](O)[C@@H]2C=CO[C@@H](O[C@@H]3O[C@H](CO)[C@@H](O)[C@H](O)[C@H]3O)[C@H]12)c1ccc(O)cc1", "note": "[AGNUSIDE]", "values": [{"measurement": "Activity", "setting": "[1]", "value": "inactive"}, {"measurement": "Activity", "setting": "[2]", "value": "Dose-dependent effect"}, {"measurement": "Activity", "setting": "[3]", "value": "Active"}, {"measurement": "Activity", "setting": "[4]", "value": "inactive"}, {"measurement": "Activity", "setting": "[5]", "value": "20 - 30%"}, {"measurement": "EC50", "setting": "[6]", "value": 1.38, "unit": "µg/mL"}, {"measurement": "Activity", "setting": "[7]", "value": "Active"}, {"measurement": "Activity", "setting": "[8]", "value": "Active"}, {"measurement": "Activity", "setting": "[9]", "value": "<=56%"}]}]}
